According to patent US10294202B2, “Pyrrolidinones as herbicides” (FMC Corporation, priority 2013, dated 2019):
Where two headings read alike, the source gives them in different places.

Legend:
ragweed = test: Test C pre-/postemergence herbicide test; type: in vivo, Ambrosia elatior; conditions: Postemergence
How it was run: (§1)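 Greenhouse plants scored visually against untreated controls 13–15 days after treatment, 0 = no effect, 100 = complete control. Test chemicals in a non-phytotoxic solvent with surfactant were applied either to soil (loam/sand) at planting or to foliage of 1- to 4-leaf plants, 2–18 cm tall.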

johnsongrass = test: Test C pre-/postemergence herbicide test; type: in vivo, Sorghum halepense
How it was run: as §1

lambsquarters = test: Test C pre-/postemergence herbicide test; type: in vivo, Chenopodium album
How it was run: as §1

ryegrass, Italian = test: Test C pre-/postemergence herbicide test; type: in vivo, Lolium multiflorum
How it was run: as §1

wheat = test: Test A pre-/postemergence herbicide test; type: in vivo, Triticum aestivum; conditions: for plant injury at 500 g/ha: 500 g ai/ha
How it was run: (§2)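 Visual 0–100 ratings (100 = complete control) made about 10 days after treatment, greenhouse-held plants compared with untreated controls. Treatments: postemergence sprays on one- to two-leaf plants (2–10 cm tall) and preemergence directed soil sprays after planting in loam–sand, chemicals formulated in non-phytotoxic solvent containing surfactant.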

morningglory = test: Test C pre-/postemergence herbicide test; type: in vivo, Ipomoea coccinea
How it was run: as §1

rice = test: Test B flooded paddy test; type: in vivo, Oryza sativa; conditions: 250 g ai/ha, Flood; scale of 0 to 100 where 0 is no effect and 100 is complete control
How it was run: (§3)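 2-leaf plants; flood 3 cm over soil; compound into paddy water; depth held. Greenhouse 13–15 d. Visual rating vs controls, 0 (no effect) to 100 (complete control); dash = not tested.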

pigweed = test: Test A pre-/postemergence herbicide test; type: in vivo, Amaranthus retroflexus; conditions: for pest or weed control at 500 g/ha: 500 g ai/ha
How it was run: as §2

corn [1] = test: Test A pre-/postemergence herbicide test; type: in vivo, Zea mays; conditions: for Corn plant response rating (crop injury, 0 = no effect, 100 = complete kill) at 500 g/ha: 500 g ai/ha
How it was run: as §2

nutsedge, yellow = test: Test C pre-/postemergence herbicide test; type: in vivo, Cyperus esculentus
How it was run: as §1

ducksalad = test: Test B flooded paddy test; type: in vivo, Heteranthera limosa; conditions: 250 g ai/ha, Flood; scale of 0 to 100 where 0 is no effect and 100 is complete control
How it was run: as §3

corn [2] = test: Test C pre-/postemergence herbicide test; type: in vivo, Zea mays
How it was run: as §1

[3] = Postemergence, 31 g ai/ha, scale 0 (no effect) to 100 (complete control)
[4] = Postemergence, 62 g ai/ha, scale 0 to 100 (0 no effect, 100 complete control)
[5] = Postemergence, 125 g ai/ha, scale 0 to 100 (0 no effect, 100 complete control)
[6] = Postemergence, 250 g ai/ha, scale 0 to 100 (0 no effect, 100 complete control)
[7] = Preemergence, 31 g ai/ha, scale 0 to 100, 0 is no effect and 100 is complete control
[8] = Preemergence, 62 g ai/ha, scale 0 to 100
[9] = Preemergence, 125 g ai/ha, scale 0 to 100 (0 no effect, 100 complete control)
[10] = Preemergence, 125 g ai/ha, visual rating on 0 to 100 scale (0 no effect, 100 complete control)

O=C1NCC(c2ccc(C(F)(F)F)cc2)C1C(=O)Nc1ccccc1F (stereo not drawn) [Compound 79, N-(2-fluorophenyl)-2-oxo-4-[4-(trifluoromethyl)phenyl]-3-pyrrolidinecarboxamide]
Plant response rating, Ragweed (ragweed; 31 g ai/ha, scale 0 (no effect) to 100 (complete control)): 20
Plant response rating, Ragweed (ragweed; 62 g ai/ha, scale 0 to 100 (0 no effect, 100 complete control)): 20
Plant response rating, Ragweed (ragweed; 125 g ai/ha, scale 0 to 100 (0 no effect, 100 complete control)): 20
Plant response rating, Ragweed (ragweed; 250 g ai/ha, scale 0 to 100 (0 no effect, 100 complete control)): 45
Plant response rating, Johnsongrass (johnsongrass; [3]): 0
Plant response rating, Johnsongrass (johnsongrass; [4]): 0
Plant response rating, Johnsongrass (johnsongrass; [5]): 0
Plant response rating, Johnsongrass (johnsongrass; [6]): 5
Johnsongrass plant response rating (johnsongrass; [7]): 0
Plant response rating, Johnsongrass (johnsongrass; [8]): 0
Plant response rating, Johnsongrass (johnsongrass; [9]): 10
Plant response rating (scale of 0 to 100), Johnsongrass (johnsongrass; Preemergence, 250 g ai/ha): 10
Plant response rating, Lambsquarters (lambsquarters; [3]): 25
Plant response rating, Lambsquarters (lambsquarters; [4]): 50
Plant response rating, Lambsquarters (lambsquarters; [5]): 85
Plant response rating, Lambsquarters (lambsquarters; [6]): 85
Lambsquarters plant response rating (lambsquarters; [7]): 90
Plant response rating, Lambsquarters (lambsquarters; [8]): 90
Plant response rating, Lambsquarters (lambsquarters; [9]): 90
Plant response rating (scale of 0 to 100), Lambsquarters (lambsquarters; Preemergence, 250 g ai/ha): 90
Plant response rating, Ryegrass, Italian (ryegrass, Italian; [3]): 0
Plant response rating, Ryegrass, Italian (ryegrass, Italian; [4]): 0
Plant response rating, Ryegrass, Italian (ryegrass, Italian; [5]): 0
Plant response rating, Ryegrass, Italian (ryegrass, Italian; [6]): 0
Ryegrass, Italian plant response rating (ryegrass, Italian; [7]): 0
Plant response rating, Ryegrass, Italian (ryegrass, Italian; [8]): 5
Plant response rating, Ryegrass, Italian (ryegrass, Italian; [9]): 30
Plant response rating (scale of 0 to 100), Ryegrass, Italian (ryegrass, Italian; Preemergence, 250 g ai/ha): 30
Wheat plant response rating (wheat; [10]): 0
plant injury at 125 g/ha (wheat; Triticum aestivum, post-emergence, 240 h, Postemergence, 125 g ai/ha, 0 to 100 scale, 0 no effect, 100 complete control, read-out: Plant response rating, Wheat): 30%
plant injury at 500 g/ha (wheat; Triticum aestivum, post-emergence, 240 h, Postemergence, 0 to 100 scale (0 no effect, 100 complete control), read-out: Plant response rating, Wheat): 50%
plant injury at 500 g/ha (wheat; Triticum aestivum, pre-emergence, 240 h, preemergence, 0 to 100 scale, read-out: Plant response rating, Wheat): 20%
Plant response rating, Morningglory (morningglory; [3]): 0
Plant response rating, Morningglory (morningglory; [4]): 0
Plant response rating, Morningglory (morningglory; [5]): 5
Plant response rating, Morningglory (morningglory; [6]): 5
Morningglory plant response rating (morningglory; [7]): 0
Plant response rating, Morningglory (morningglory; [8]): 0
Plant response rating, Morningglory (morningglory; [9]): 0
Plant response rating (scale of 0 to 100), Morningglory (morningglory; Preemergence, 250 g ai/ha): 0
Plant response rating, Rice (rice): 0
pest or weed control at 125 g/ha (pigweed; Amaranthus retroflexus, post-emergence, 240 h, Postemergence, 125 g ai/ha, 0 to 100 scale, 0 no effect, 100 complete control, read-out: Plant response rating, Pigweed): 70%
pest or weed control at 500 g/ha (pigweed; Amaranthus retroflexus, post-emergence, 240 h, Postemergence, 0 to 100 scale (0 no effect, 100 complete control), read-out: Plant response rating, Pigweed): 70%
pest or weed control at 500 g/ha (pigweed; Amaranthus retroflexus, pre-emergence, 240 h, preemergence, 0 to 100 scale, read-out: Plant response rating, Pigweed): 80%
Pigweed plant response rating (pigweed; [10]): 80
Corn plant response rating (corn [1]; [10]): 0
Corn plant response rating (crop injury, 0 = no effect, 100 = complete kill) at 125 g/ha (corn [1]; Zea mays, post-emergence, 240 h, Postemergence, 125 g ai/ha, 0 to 100 scale, 0 no effect, 100 complete control): 20%
Corn plant response rating (crop injury, 0 = no effect, 100 = complete kill) at 500 g/ha (corn [1]; Zea mays, post-emergence, 240 h, Postemergence, 0 to 100 scale (0 no effect, 100 complete control)): 70%
Corn plant response rating (crop injury, 0 = no effect, 100 = complete kill) at 500 g/ha (corn [1]; Zea mays, pre-emergence, 240 h, preemergence, 0 to 100 scale): 0%
Plant response rating, Nutsedge, Yellow (nutsedge, yellow; [3]): 0
Plant response rating, Nutsedge, Yellow (nutsedge, yellow; [4]): 0
Plant response rating, Nutsedge, Yellow (nutsedge, yellow; [5]): 0
Plant response rating, Nutsedge, Yellow (nutsedge, yellow; [6]): 0
Nutsedge, Yellow plant response rating (nutsedge, yellow; [7]): 0
Plant response rating, Nutsedge, Yellow (nutsedge, yellow; [8]): 0
Plant response rating, Nutsedge, Yellow (nutsedge, yellow; [9]): 0
Plant response rating (scale of 0 to 100), Nutsedge, Yellow (nutsedge, yellow; Preemergence, 250 g ai/ha): 0
Plant response rating, Ducksalad (ducksalad): 90
Plant response rating, Corn (corn [2]; [3]): 0
Plant response rating, Corn (corn [2]; [4]): 0
Plant response rating, Corn (corn [2]; [5]): 0
Plant response rating, Corn (corn [2]; [6]): 0
Corn plant response rating (corn [2]; [7]): 0
Plant response rating, Corn (corn [2]; [8]): 0
Plant response rating, Corn (corn [2]; [9]): 10
Plant response rating (scale of 0 to 100), Corn (corn [2]; Preemergence, 250 g ai/ha): 30
